Consider one substance from patent US12427183B2, “Methods of treating cancer, infectious disease, and autoimmune disease using chemokines” (New York Society for the Relief of the Ruptured and …, priority 2016, dated 2025).

“Also recorded” adds a separate entry of the source.

The test system of one assay is pDCs of HDs. The experiment in a line: TLR gene expression in purified pDCs from HDs cultured with cytokines or chemokines (qPCR). It is filed as cell-based, human. The conditions noted are these: 10 μg/ml each, 24 hours, pDCs from HDs. On the procedure:
(§1) PBMCs were prepared using Ficoll-Paque density gradient from fresh blood under internal Institutional Review Board-approved protocols. pDCs were isolated as previously described (Guiducci et al. 2008) using either using negative depletion (Miltenyi Biotech) or following cell sorting using a BD IFNLUX cell sorter. As part of the gating strategy, neutrophils were excluded by FSC/SSC and cells positive for CD14 (CD3 and CD19 as well) were first excluded in order to prevent the contamination by TLR8 positive cells and then positively gated on HLA-DR, CD123 and BDCA4 to purify the pDCs. All BDCA4+ cells also express BDCA2 (results not shown). As a result, pure pDCs were obtained and no markers for neutrophils (CD66) or myeloid cells were found by PCR. B cells were FACS sorted as CD19+ and monocytes as CD14+ cells. PBMCs were depleted of pDCs using BDCA4 beads from Miltenyi. pDCs were cultured at 10,000-30,000 cells per well in a 96-round bottom plate and incubated at 37° C., 5% CO2 and 95% humidity. After 24 hours of culture, the supernatant was collected for ELISA or Mutiplex cytokine assays. In some culture conditions, cells were cultured with the PI3Kδ inhibitor, CAL-101 (Selleck chemicals) for 24 hours. The RNA-based TLR8 agonist, ORN8-L previously described (Guidacci et al. 2013) was synthetized by Chemgenes Corporation. For the TLR8 activation assay, pDCs were incubated in complete media alone, 200 μg/ml ORN8-L in complete media or 200 μg/ml ORN8-L+ 10 μg/ml CXCL4 (R&D systems).
PCR reactions were performed as described previously with 10 ng of cDNA (Barrat et al. 2005). In brief, RNA was extracted from cells using the Qiagen RNeasy Mini Kit. Quantity of RNA was measured by Nanodrop and high-capacity cDNA Reverse Transcription kit was used to generate 20-50 ng cDNA. Gene expression levels were calculated based on relative threshold cycle (Ct) values. This was done using the formula Relative Ct=100×1.8 (HSK-GENE), where HSK is the mean CT of duplicate housekeeping gene runs (we used Ubiquitin), GENE is the mean CT of duplicate runs of the gene of interest, and 100 is arbitrarily chosen as a factor to bring all values above 0.
In particular, CXCL4 or IP-10 (two CXCR3B agonists) (10 μg/ml each) had no impact on TLR8 nor TLR7 and TLR9 expression levels in pDCs (FIG. 2C).
In general terms: Quantitative PCR measures a nucleic acid by following its amplification.

Assay [1] concerns purified pDCs from HDs or SSc patients. The experiment in a line: IFN production by purified pDCs cultured with chemokine alone. It is filed as cell-based, human. Further details: IFN production, CXCL4 alone: dose or concentration left out as unconfirmed. On the procedure:
as §1
Supernatant from pDCs 24 hour culture was used for quantification of secreted chemokines and cytokines and measured with the use of an enzyme-linked immunosorbent assay (ELISA) or Luminex multiplex-beads immunoassay. CXCL4 ELISA (Ray Biotech) and IFNα, IP-10, IL-6, TNF Luminex assay (Millipore) was performed according to the manufacturer's protocol. Due to the variability in the number of cells obtained from the different patients and so we could compare the values across donors, all results were normalized to 10,000 cells. Of note, for all donors, pDCs were plated between 10,000-30,000 cells.
When purified pDCs from HDs or SSc patients were cultured with CXCL4 alone ([…]), there was no effect on IFN production.
5×10^5 PBMCs or pDC-depleted PBMCs were cultured in 96 wells plate and stimulated with 0.25 μM CpG DNA with or without 10 μg/ml CXCL4, CXCL10, CXCL12 or CCL5. Freshly isolated pDCs were resuspended at 5×10^4 cells/100 μl RPMI 1640 medium (Gibco) and stimulated with the 0.25 μM CpG with/without 10 μg/ml indicated chemokines. The supernatant was harvested after 18 h and IFN-α was measured by ELISA.

Assay [2] concerns TLR9-mediated activation of pDCs. The experiment in a line: TLR9-mediated activation of purified pDCs (CpG with or without chemokines), IFN-α ELISA. It is filed as cell-based, human.
In assay [3] the test system is TLR7-mediated activation of pDCs. It is filed as cell-based, human. The following applies: CXCL4 10 μg/ml; TLR7 agonist at suboptimal dose; similar in HDs and SSc patients.
For assay [4], the system named is TLR9-mediated activation of human B cells. The assay is described as follows: TLR9-mediated activation of human B cells (CpG with or without chemokines). It is filed as cell-based. On the procedure:
as §1
IL-6, TNF, and IL-10 gene levels were measured at 6 hours post culture using PCR. The secretion of cytokines/chemokines in the supernatants was quantified using Luminex. CD83, CD80, CD86 and CD69 expression was measured by flow cytometry at 24 hour post culture.
Human B cells were purified and cultured for 6 hours or 24 hours either with medium only, with CpG-C (at 0.15 μM) alone or with a combination of CpG-C and CXCL4 (at 10 μg/ml). IL-6 gene levels was measured at 6 hour post culture by PCR and CD83, CD80, CD86 and CD69 expression was measured by flow cytometry at 24 hour post culture.
Purified B cells from HDs were cultured in media alone (control), with either a CpG TLR9 agonist (0.15 μM) or with CpG and either CXCL4, CXCL10, CXCL9, CXCL4, CXCL7 or CXCL12 (all at 10 μg/ml). IL-6 was quantified in the supernatants by ELISA.
Purified B cells from HDs were cultured in media alone (control), with either a CpG TLR9 agonist (0.25 μM) or with CpG and CXCL4 or CXCL10 (10 μg/ml) alone or in the presence of the CXCR3 inhibitor AMG487 at 0, 0.1, 1 or 10 μM for 6 hours or 24 hours. IL-6 was quantified by ELISA at 24 hours and IL-6 and TNF gene expression levels were quantified by q-PCR at 6 hours and CD83, CD80, CD86 and CD69 expression was measured by flow cytometry at 24 hours post culture.

The test system of assay [5] is TLR7-mediated activation of human B cells. The assay is described as follows: TLR7-mediated activation of human B cells (R848 with or without CXCL4). Format: cell-based. The conditions noted are these: R848 0.15 μM + CXCL4 10 μg/ml. On the procedure: IL-6 and TNF gene levels were measured at 6 hour post culture by PCR, secretion of IL-6 and TNF were quantified using luminex and CD83 and CD80 expression was measured by flow cytometry at 24 hour post culture.

[6] abbreviates: CpG-B 0.15 μM + CXCL4 10 μg/ml, 6 hours.

For the substance “CXCL4: small chemokine of the CXC family, 70-amino acid protein released from alpha-granules of activated platelets”, in the assay on pDCs of HDs, the “TLR8, TLR7 and TLR9 expression levels in pDCs” value was “no impact”. Moreover, the “IFN-α secretion by pDCs, chemokine used alone” value in assay [1] (chemokine 10 μg/ml without CpG, results not shown) was “no effect”. Besides, in assay [1] (purified pDCs from HDs or SSc patients, CXCL4 alone), the “IFN production, CXCL4 alone” value is given as “no effect; also recorded: did not induce”. In addition, the “TLR9 response (IFN-α) of pDCs” value in assay [2] (CXCL4 10 μg/ml, CpG-C 0.1 μM or CpG-B 0.25 μM, suboptimal doses, similar in HDs and SSc patients) is reported as “drastically impacted”. Besides, the “TLR9-induced response (IFN-α secretion) by pDCs” value in assay [2] (CpG 0.25 μM, chemokine 10 μg/ml (Example 17)) is “superinduce”. Also, the “dependence of IFN-α superinduction on chemokine receptors” value in assay [2] (with AMG487 100 nM, AMD3100 10 μg/ml, anti-CXCR7 11G8 10 μg/ml, J113863 1.5 μM or Vicriviroc 0.1 μM) is on record as “independent of their chemokine receptors”. The “TLR7 response (IFN-α) of pDCs” value in assay [3] is “little to no effect”. In addition, the “effect of inhibition of CXCR3 on the chemokine's inhibition of TLR9 in B cells” value in assay [4] (CXCR3 inhibitor AMG487 0.1, 1 or 10 μM, CpG 0.25 μM, chemokine 10 μg/ml, 6 or 24 hours) is given as “no effect”. Besides, the “activation of B cells via TLR9 as shown by the production of IL-6” value in assay [4] (CpG 0.15 μM, chemokine 10 μg/ml, ELISA) was “inhibited”. Also, in assay [4] (setting [6]), the “expression of IL-6 in B cells (PCR and protein)” value is given as “negatively regulated”; the “expression of IL-10 in B cells (PCR and protein)” value is reported as “negatively regulated”; the “expression of TNF in B cells (PCR and protein)” value is “negatively regulated”. Moreover, in assay [4] (CpG-C 0.15 μM + CXCL4 10 μg/ml, 6 or 24 hours), the “TLR9 activation of B cells (IL-6 gene; CD83, CD80, CD86, CD69)” value was “negatively regulated”. Besides, in assay [5], the “gene expression or secretion of IL-6 when activated by TLR7” value is “little effect” and the “gene expression or secretion of TNF when activated by TLR7” value was “little effect”.
